Assay results from patent publication US20250154105A1, “POLYCYCLIC COMPOUND AND USE THEREOF” (TYK MEDICINES, INC., priority 2021, published 2025).

Assays:
YAP-TEAD = YAP-TEAD inhibitor activity by Nano luciferase method (8xGTiiC-nLuc reporter in 293T cells); format: cell-based; conditions: Homo sapiens, HEK-293T, 48 hours incubation, read-out: Nano-luciferase detection (IC50)
Procedure, shortened: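 293T cells transiently transfected with pGL3B-8xGTiiC-nLuc-CMV-fLuc, seeded 2000 cells/well, then treated 48 h at 37 °C with compounds in 1:3.16 dilution series (top 10,000 nM). Nano luciferase signal read after cell lysis; IC50 from percent of 0 nM control.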

[1] = Rat pharmacokinetic experiment; format: in vivo; conditions: po, male SD rats, gavage (p.o.), 10 mg/kg, plasma
Excerpt: TEST EXAMPLE 3 PHARMACOKINETIC EXPERIMENT OF COMPOUNDS
Pharmacokinetic test of compounds T-32/T-105/T-253/T-272/T-273/T-277 of the present invention.
Experimental Protocol of Rat Pharmacokinetics
• (1) Required animals: healthy adult SD rats, male, 3 rats, 6-8 weeks old; weighing 200-300 g. • (2) Required equipments: analytical balance, animal weight scale, magnetic stirrer, refrigerated centrifuge, single-channel manual pipettor, etc. • (3) Required reagents: EDTA-Na2 anticoagulant, etc. 11.2 g of EDTA-Na2 was weighed and placed in a reagent flask, 100 mL of normal saline was added, and the flask was shook to completely dissolve it. After the preparation was completed, it was divided into 1.5 mL centrifuge tubes with 20 uL each for whole blood sample collection. • (3) About 10 mg of the sample to be tested was accurately weighed, 5% DMSO after conversion was added to dissolve, then 30% PEG400 and 65% (10% Hp-β-CD in PBS) were added for sonication, and vortex-mixed evenly to obtain a solution with a concentration of 1 mg/mL which is freshly prepared before use. • (4) 0.1 mL of sample was taken into a 1.5 mL centrifuge tube and stored at −80° C. for concentration analysis of drug administration solution. • (5) Animals were kept in rat cages, and fasted (not less than 10 h) from the day before the test(but water was allowed). The animals were separately weighed and marked at the tail on the day of the test. Blank blood was collected before administration. The blood was collected from tail vein. • (6) Route of administration: gavage (p.o.); dosage: 10 mg/kg; administration volume: 10 mL/kg. • (7) Operation process: Use the left hand with anti-bite gloves to catch the rat, make it stand upright, stretch the 16th gastric lavage needle from the throat of the mouth, insert the needle when feeling out no obvious resistance, and then inject the drug into the stomach. • (8) 0.2 ml of whole blood was collected from the tested animals and added into EDTA-Na2 anticoagulant tubes before administration and 0.5 h, 1 h, 2 h, 4 h, 6 h, 8 h, 12 h and 24 h after administration respectively. The tubes were reversed up and down for 3-4 times and mixed evenly, centrifuged at 4° C. at 10000 g for 5 min to separate plasma, and stored at −80° C. for testing. The blood was collected from tail vein. • (9) LC-MS/MS method was established to determine the concentration of original drug in plasma, the blood drug concentration-time curve was drawn, and the main pharmacokinetic parameters were calculated by non-compartment model. • (10) Pharmacokinetic parameters of T-32/T-105/T-253/T-272/T-273/T-277 were shown below in Table 2.

| SMILES | IC50 (YAP-TEAD) [µM] | AUC(0-t) [1] [ng·h/mL] | Cmax [1] [ng/mL] | MRT last [1] [h] | Tmax [1] [h] |
| --- | --- | --- | --- | --- | --- |
| CNS(=O)(=O)c1ccc2c(c1)c1cn(C)nc1c(=O)n2-c1ccc(C(F)(F)F)cc1 [Example T-32] | ≤ 1 | 22200 | 2220 | 6.88 | 2.5 |
| C[C@H](NC(=O)c1ccc2c(c1)c1cnccc1c(=O)n2-c1ccc(C(F)(F)F)cc1)c1ccccn1 [Example T-253] | ≤ 1 | 39200 | 2640 | 9.78 | 4.7 |
| Cc1cc(=O)n(-c2ccc(C(F)(F)F)cc2)c2ccc(C(=O)N[C@@H](C)c3ccccn3)cc12 [Example T-277] | ≤ 1 | 26900 | 2650 | 7.28 | 4.7 |

More lines, now with the values ahead:

| IC50 (YAP-TEAD) [µM] | AUC(0-t) [1] [ng·h/mL] | Cmax [1] [ng/mL] | MRT last [1] [h] | Tmax [1] [h] | SMILES |
| --- | --- | --- | --- | --- | --- |
| ≤ 1 | 53900 | 3870 | 9.48 | 4 | C[C@H](NC(=O)c1ccc2c(c1)c1nn(C)cc1c(=O)n2-c1ccc(C(F)(F)F)cc1)c1ccccn1 [Example T-105] |
| ≤ 1 | 21200 | 1410 | 9.96 | 5.3 | C[C@H](NC(=O)c1ccc2c(c1)c1ccccc1c(=O)n2-c1ccc(C(F)(F)F)cc1)c1ccccn1 [Example T-272] |
